One experiment addresses IDO1 (Homo sapiens, UniProt P14902). Briefly: IDO1 Human Whole Blood Assay. Type of experiment: cell-based. As to conditions: WBLD taken as whole blood; read-out: WBLD IC50. The method, then:
Compounds to be tested were serially diluted in ten 3-fold steps in DMSO starting from 10 mM. 3 μL of compound dilutions or DMSO alone were then dispensed from the dilution plate into a polypropylene 96-well assay plate containing 97 μL of RPMI medium using an Echo 555 acoustic liquid handler (Labcyte). LPS and IFNγ was prepared in RPMI medium to a 10× of final conc. (1000 ng/mL), final concentration is 100 ng/mL.
Human whole blood was drawn in sodium heparin coated tubes from healthy internal donors. 240 μL of blood was transferred to each of the wells of a v-bottom 96 well plate. 30 μL of compound was transferred from intermediate dilution plate, and incubated for 15 min. 30 μL from stimulants was then transferred to blood and mixed thoroughly. Plate was covered with breathable membrane and incubated at 37° C. for overnight (18 h).
On day 2, isotope labeled standard solutions of kunurenine and tryptophan was made in water at 10× concentration and 30 μL was added to the blood at 3 μM final concentration. The assay plates were centrifuged at 300×G for 10 min with no brake to separate plasma from red blood cells. 60 μL of plasma samples was removed without disturbing red blood cells. Plasma was diluted with RPMI in 1:1 ratio and proteins were precipitated out with two volumes of Acetonitrile. The plates were centrifuged at 4000×G for 60 min. 20 μL of supernatant was carefully transferred to a 384 well plate containing 40 μL of 0.1% formic acid in water and analyzed by LC/MS/MS.
LC/MS/MS analyses were performed using Thermo Fisher's LX4-TSQ Quantum Ultra system. This system consists of four Agilent binary high-performance liquid chromatography (HPLC) pumps and a TSQ Quantum Ultra triple quadrupole MS/MS instrument. For each sample, 5 μL were injected onto an Atlantis T3 column (2.1 mm×150 mm, 3 μm particle size) from Waters. The mobile phase gradient pumped at 0.8 mL/min was used to elute the analytes from the column at 25° C. The elution started at 0% B increasing linearly to 25% B at 6.5 min, holding at 25% for 1 min, re-equilibrating to 10 min. Mobile phase A consisted of 0.1% formic acid in water. Mobile phase B consisted of 0.1% of formic acid in acetonitrile. Data were acquired in positive mode using a HESI interface. The operational parameters for the TSQ Quantum Ultra instrument were a spray voltage of 4000 V, capillary temperature of 380° C., vaporizer temperature 400° C., shealth gas 60 arbitrary units, Aux gas 20 arbitrary units, tube lens 85 and collision gas 1.2 mTorr. SRM chromatograms of kynurenine (Q1: 209.2>Q3:94.0) and internal standard (Q1: 215.3>Q3:98.2) were collected for 90 sec. The peak area was integrated by Xcalibur Quan software. The ratios between the kynurenine generated in the reaction and 2D6-Kynurenine spiked-in internal standard were used to generate percentage inhibition and IC50 values. Compounds were titrated and IC50's were calculated by 4 parameter sigmoidal curve fitting formula.
Sequence of IDO1 (P14902 whole entry): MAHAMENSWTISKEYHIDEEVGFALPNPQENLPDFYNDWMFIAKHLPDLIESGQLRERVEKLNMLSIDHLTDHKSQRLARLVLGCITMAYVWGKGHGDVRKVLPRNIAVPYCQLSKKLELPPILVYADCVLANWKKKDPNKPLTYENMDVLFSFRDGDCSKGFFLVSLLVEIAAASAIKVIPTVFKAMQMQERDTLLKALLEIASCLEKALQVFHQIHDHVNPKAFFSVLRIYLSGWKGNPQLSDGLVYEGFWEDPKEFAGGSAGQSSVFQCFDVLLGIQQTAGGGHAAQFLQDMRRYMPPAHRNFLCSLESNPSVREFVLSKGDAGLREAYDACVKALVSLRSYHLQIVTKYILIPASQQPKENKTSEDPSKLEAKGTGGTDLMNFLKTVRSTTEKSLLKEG
Take `Cc1cc(F)ccc1OC1CCN(C(=O)Cn2nc(C(=O)N3CC[C@H](O)[C@H](F)C3)c3c2CCCC3)CC1` (racemic) [Example 77, 1-[4-(4-fluoro-2-methyl-phenoxy)-1-piperidyl]-2-[3-[rac-(3R,4S)-3-fluoro-4-hydroxy-piperidine-1-carbonyl]-4,5,6,7-tetrahydroindazol-1-yl]ethanone]: the IC50 was determined as 0.267 µM. Take `C[C@@H]1CN(C(=O)c2nn(CC(=O)N3CCC(Oc4cc(F)ccc4Br)CC3)c3c2CCC3)C[C@H](C)O1` [Example 91, 1-[4-(2-bromo-5-fluorophenoxy)piperidin-1-yl]-2-{3-[(2R,6S)-2,6-dimethylmorpholine-4-carbonyl]-5,6-dihydrocyclopenta[c]pyrazol-1(4H)-yl}ethan-1-one]: the half-inhibitory concentration (IC50) is 0.0866 µM. Same read-out and setting: the result for `Cc1ccc(F)cc1OC1CCN(C(=O)Cn2nc(C(=O)N3C[C@@H](C)O[C@@H](C)C3)c3c2CCC3)CC1` [Example 135, 2-[3-(2,6-dimethylmorpholine-4-carbonyl)-5,6-dihydrocyclopenta[c]pyrazol-1(4H)-yl]-1-[4-(5-fluoro-2-methylphenoxy)piperidin-1-yl]ethan-1-one] reads 0.112 µM; that for `Cc1ccc(F)cc1OC1CCN(C(=O)Cn2nc(C(=O)N3C[C@@H](C)O[C@@H](C)C3)c3c2CCC3)CC1` [Example 90, 2-(3-(cis-2,6-Dimethylmorpholine-4-carbonyl)-5,6-dihydrocyclopenta[c]pyrazol-1(4H)-yl)-1-(4-(5-fluoro-2-methylphenoxy)piperidin-1-yl)ethan-1-one], 0.142 µM.

With `C[C@@H]1C[C@H](Oc2ccccc2Cl)CCN1C(=O)Cn1nc(C(=O)N2CCN(C(=O)CO)CC2)c2c1C[C@H]1C[C@@H]21` [Example 4, 1-((2R,4R)-4-(2-chlorophenoxy)-2-methylpiperidin-1-yl)-2-((3bR,4aR)-3-(4-(2-hydroxyacetyl)piperazine-1-carbonyl)-3b,4,4a,5-tetrahydro-1H-cyclopropa[3,4]cyclopenta[1,2-c]pyrazol-1-yl)ethanone], the IC50 stood at 0.315 µM. For the compound `CC(=O)NC1CCN(C(=O)c2nn(CC(=O)N3CCC(Oc4ccccc4C)CC3)c3c2CCCC3)CC1` [Example 24, N-(1-(1-(2-oxo-2-(4-(o-tolyloxy)piperidin-1-yl)ethyl)-4,5,6,7-tetrahydro-1H-indazole-3-carbonyl)piperidin-4-yl)acetamide], the IC50 came to 0.314 µM. The same measure, in the same setting: to `Cc1ccccc1OC1CCN(C(=O)Cn2nc(C(=O)N3CC[C@H](O)[C@H](F)C3)c3c2CCCC3)CC1` [Example 31, 2-(3-((3R,4S)-3-fluoro-4-hydroxypiperidine-1-carbonyl)-4,5,6,7-tetrahydro-1H-indazol-1-yl)-1-(4-(o-tolyloxy)piperidin-1-yl)ethanone] belongs 0.59 µM; to `CC(=O)NC1CCN(C(=O)c2nn(CC(=O)N3CCC(Oc4ccccc4Cl)CC3)c3c2CCCC3)CC1` [Example 6, N-(1-(1-(2-(4-(2-chlorophenoxy)piperidin-1-yl)-2-oxoethyl)-4,5,6,7-tetrahydro-1H-indazole-3-carbonyl)piperidin-4-yl)acetamide], 0.596 µM. Same read-out and setting: the result for `O=C(c1nn(CC(=O)N2CCC(Oc3ccccc3Cl)C3CC32)c2c1[C@@H]1C[C@@H]1C2)N1CCC(OCCO)CC1` (single isomer, unassigned) [Example 171] reads 0.15 µM. The same measure, in the same setting: to `Cc1ccccc1OC1CCN(C(=O)Cn2nc(C(=O)N3CCC(O)(C(F)F)CC3)c3c2CCCC3)CC1` [Example 22, 2-(3-(4-(difluoromethyl)-4-hydroxypiperidine-1-carbonyl)-4,5,6,7-tetrahydro-1H-indazol-1-yl)-1-(4-(o-tolyloxy)piperidin-1-yl)ethanone] belongs 0.0924 µM. In the case of `CC(=O)NC1CCN(C(=O)c2nn(CC(=O)N3CCC(Oc4ccccc4C)CC3)c3c2[C@@H]2C[C@@H]2C3)CC1` [Example 29, N-(1-((3bR,4aR)-1-(2-oxo-2-(4-(o-tolyloxy)piperidin-1-yl)ethyl)-3b,4,4a,5-tetrahydro-1H-cyclopropa[3,4]cyclopenta[1,2-c]pyrazole-3-carbonyl)piperidin-4-yl)acetamide], the IC50 was determined as 0.114 µM. Still for that read-out and setting: the result for `Cc1ccccc1OC1CCN(C(=O)Cn2nc(C(=O)N3CCC(O)CC3)c3c2CCC3)CC1` [Example 33, 2-(3-(4-hydroxypiperidine-1-carbonyl)-5,6-dihydrocyclopenta[c]pyrazol-1(4H)-yl)-1-(4-(o-tolyloxy)piperidin-1-yl)ethanone] reads 0.0859 µM.

On to `Cc1ccccc1OC1CCN(C(=O)Cn2nc(C(=O)N3CCC(O)(CF)CC3)c3c2CCC3)CC1` [Example 35, 2-(3-(4-(fluoromethyl)-4-hydroxypiperidine-1-carbonyl)-5,6-dihydrocyclopenta[c]pyrazol-1(4H)-yl)-1-(4-(o-tolyloxy)piperidin-1-yl)ethanone], for which the IC50 was determined as 0.14 µM. For `C[C@@H]1C[C@H](Oc2ccccc2Cl)CCN1C(=O)Cn1nc(C(=O)N2CC[C@@H](O)[C@@H](F)C2)c2c1C[C@H]1C[C@@H]21` [Example 52, 1-((2R,4R)-4-(2-chlorophenoxy)-2-methylpiperidin-1-yl)-2-((3bR,4aR)-3-((3S,4R)-3-fluoro-4-hydroxypiperidine-1-carbonyl)-3b,4,4a,5-tetrahydro-1H-cyclopropa[3,4]cyclopenta[1,2-c]pyrazol-1-yl)ethanone], the concentration for half-maximal inhibition (IC50) was found to be 0.101 µM. Regarding `Cc1ccccc1OC1CCN(C(=O)Cn2nc(C(=O)N3CCC(OCCO)CC3)c3c2CCCC3)CC1` [Example 20, 2-(3-(4-(2-hydroxyethoxy)piperidine-1-carbonyl)-4,5,6,7-tetrahydro-1H-indazol-1-yl)-1-(4-(o-tolyloxy)piperidin-1-yl)ethanone], the IC50 was found to be 0.02 µM. Same read-out and setting: the result for `Cc1ccccc1OC1CCN(C(=O)Cn2nc(C(=O)N3CC[C@H](O)[C@@H](F)C3)c3c2CCCC3)CC1` [Example 23, 2-(3-((3S,4S)-3-fluoro-4-hydroxypiperidine-1-carbonyl)-4,5,6,7-tetrahydro-1H-indazol-1-yl)-1-(4-(o-tolyloxy)piperidin-1-yl)ethanone] reads 0.0229 µM; that for `Cc1cc(F)ccc1OC1CCN(C(=O)Cn2nc(C(=O)N3CCO[C@H](CO)C3)c3c2CCCC3)CC1` [Example 81, 1-[4-(4-fluoro-2-methyl-phenoxy)-1-piperidyl]-2-[3-[(2S)-2-(hydroxymethyl)morpholine-4-carbonyl]-4,5,6,7-tetrahydroindazol-1-yl]ethanone], 0.0898 µM; that for `Cc1ccccc1SC1CCN(C(=O)Cn2nc(C(=O)N3CC[C@@H](O)[C@@H](F)C3)c3c2C[C@H]2C[C@@H]32)CC1` [Example 177, 2-((3bR,4aR)-3-((3S,4R)-3-Fluoro-4-hydroxypiperidine-1-carbonyl)-3b,4,4a,5-tetrahydro-1H-cyclopropa[3,4]cyclopenta[1,2-c]pyrazol-1-yl)-1-(4-(o-tolylthio)piperidin-1-yl)ethanone], 0.532 µM.

The same experiment, now with this note: human whole blood, LPS and IFNγ 100 ng/mL, 18 h, kynurenine by LC/MS/MS; read-out: IDO1 human whole blood assay, IC50.
Regarding `NC(=O)CN1CCN(C(=O)c2nn(CC(=O)N3CCC(Oc4ccccc4Cl)CC3)c3c2CCCC3)CC1` [Example 5, 2-(4-(1-(2-(4-(2-chlorophenoxy)piperidin-1-yl)-2-oxoethyl)-4,5,6,7-tetrahydro-1H-indazole-3-carbonyl)piperazin-1-yl)acetamide], the IC50 worked out at 0.543 µM. As to `CC(=O)NC1CCN(C(=O)c2nn(CC(=O)N3CCC(Oc4ccccc4C)CC3)c3c2[C@@H]2C[C@@H]2C3)CC1` [Example 29, N-(1-((3bR,4aR)-1-(2-oxo-2-(4-(o-tolyloxy)piperidin-1-yl)ethyl)-3b,4,4a,5-tetrahydro-1H-cyclopropa[3,4]cyclopenta[1,2-c]pyrazole-3-carbonyl)piperidin-4-yl)acetamide], the half-maximal inhibitory concentration (IC50) was found to be 0.625 µM.

For orientation: IC50 means the concentration needed to halve the response being measured.

These data come from patent publication US12576087B2, “Aryloxypiperidine pyrazole compounds as indoleamine 2,3-dioxygenase inhibitors” (Merck Sharp & Dohme LLC, priority 2018, dated 2026).
